Literature values as cited in PMC5983471 (PLoS ONE, 2018).
Read-outs that look alike come from different tables or passages of the source.

Key:
[1] = set-up: method as in FDA prescribing information; conditions: ref FDA prescribing information, cited from earlier work
[2] = set-up: method as in FDA prescribing information; conditions: healthy volunteers; ref FDA prescribing information; cited from earlier work
[3] = system: plasma proteins, primarily albumin; set-up: method as in FDA prescribing information; conditions: ref FDA prescribing information; cited from earlier work
[4] = set-up: method as in FDA prescribing information; conditions: single oral 14C-enzalutamide 160 mg; ref FDA prescribing information; cited from earlier work
[5] = system: CYP2C9; set-up: method as in FDA prescribing information; conditions: ref FDA prescribing information, cited from earlier work
[6] = system: human CYP2C8 and CYP3A4; set-up: method as in FDA prescribing information; conditions: in vitro; ref FDA prescribing information; cited from earlier work
[7] = system: castration-resistant prostate cancer; conditions: ref 59 (S1 Protocol), cited from earlier work
[8] = system: CYP2C19; set-up: method as in FDA prescribing information; conditions: ref FDA prescribing information, cited from earlier work
[9] = system: CRPC; conditions: cited from earlier work
[10] = ref FDA prescribing information; cited from earlier work
[11] = system: CYP3A4; set-up: method as in FDA prescribing information; conditions: healthy volunteers; ref FDA prescribing information; cited from earlier work
[12] = system: CYP3A4; set-up: method as in FDA prescribing information; conditions: ref FDA prescribing information, cited from earlier work
[13] = system: CRPC; conditions: cited from earlier work; remark: listed apart in the source
[14] = system: CYP2C8; set-up: method as in FDA prescribing information; conditions: healthy volunteers; ref FDA prescribing information; cited from earlier work
[15] = AFFIRM, Enzalutamide (N=800), ref Scher et al, 2012
[16] = PREVAIL, Enzalutamide (N=871), ref Beer et al, 2014

In the case of CC1(C)C(=O)N(c2ccc(C#N)c(C(F)(F)F)c2)C(=S)N1c1ccc(C(N)=O)c(F)c1 [N-desmethyl enzalutamide], the “plasma mean Cmax at steady state” value ([1]; 160 mg daily oral) is listed as 12700 ng/mL, the “plasma mean predose trough at steady state” value ([1]; 160 mg daily oral) is listed as 13.0 µg/mL and the “effect of a high-fat meal on AUC” value [2] is listed as “did not alter”. The “bound to plasma proteins” value [3] was 95% and the “% of dose recovered in feces as this species” value [4] was 1%.
In the case of CNC(=O)c1ccc(N2C(=S)N(c3ccc(C#N)c(C(F)(F)F)c3)C(=O)C2(C)C)cc1F [enzalutamide, 4-(3-[4-cyano-3-(trifluoromethyl)phenyl]-5,5dimethyl-4-oxo-2-sulfanylideneimidazolidin-1-yl)-2-fluoro-N-methylbenzamide], the “effect on plasma exposure to warfarin (CYP2C9 substrate)” value ([5]; at steady state) is listed as “reduced”, the CYP2C9 inducer strength ([5]; in humans) is listed as “moderate” and the “enzymes responsible for the metabolism” value [6] is listed as “CYP2C8 and CYP3A4”. For the same molecule, the “PSA response rate (≥50% PSA declines)” value ([7]; 30 mg to 600 mg by mouth daily, 78 out of 140 subjects) was 56%, the “patients who discontinued treatment for an AE” value ([7]; daily dose ≤240 mg) was 1/87 and the “patients who discontinued treatment for an AE” value ([7]; doses ≥360 mg) was 7/53. For the same molecule, the “grade 3-4 AE: anemia” value ([7]; overall) was 3%, the “grade 3-4 AE: arthralgia” value ([7]; overall) was 2% and the “grade 3-4 AE: asthenia” value ([7]; overall) was 2%. For the same molecule, the “grade 3-4 AE: fatigue” value ([7]; overall) was 11%, the “grade 3-4 AE: seizures” value ([7]; overall) was 2% and the “mild (grade 2) AE: anorexia” value ([7]; overall) was 5.7%. For the same molecule, the “mild (grade 2) AE: back pain” value ([7]; overall) was 5.7%, the “mild (grade 2) AE: dyspnea” value ([7]; overall) was 7.9% and the “mild (grade 2) AE: fatigue” value ([7]; overall) was 27.1%. The “mild (grade 2) AE: nausea” value ([7]; overall) was 8.6%, the maximum tolerated dose [7] was 240 mg daily and the “effect on plasma exposure to omeprazole (CYP2C19 substrate)” value ([8]; at steady state) was “reduced”. The CYP2C19 inducer strength ([8]; in humans) was “moderate”, the “plasma mean Cmax at steady state” value ([1]; 160 mg daily oral) was 16600 ng/mL and the “mean apparent volume of distribution (V/F)” value ([1]; single oral dose, patients, 29% CV) was 110 L. For the same molecule, the “mean apparent clearance (CL/F)” value ([1]; single oral dose, patients) was 0.56 L/h, the “HR for death vs placebo” value ([9]; 95% CI 0.53 to 0.75, P<0.001, ref 4 (S1 Protocol)) was 0.63 and the “Abnormal liver function testing, Grade 3-4 (%)” value [9, 15] was 0.4%. The “Arthralgias / musculoskeletal pain, Grade 3-4 (%)” value [9, 15] was 1%, the “Diarrhea, Grade 3-4 (%)” value [9, 15] was 1% and the “Fatigue, Grade 3-4 (%)” value [9, 15] was 6%. For the same molecule, the “Headache, Grade 3-4 (%)” value [9, 15] was 0.8%, the “Hot flashes, Grade 3-4 (%)” value [9, 15] was 0% and the “Seizure, Grade 3-4 (%)” value [9, 15] was 0.6%. For the same molecule, the “median OS” value ([9]; enzalutamide 160 mg daily (N=800), ref 4 (S1 Protocol)) was 18.4 months, the “rate of grade 3 or higher AEs” value ([9]; enzalutamide 160 mg daily, ref 4 (S1 Protocol)) was 45.3% and the solubility in water [10] was “practically insoluble”. The “increase of composite AUC of enzalutamide plus N-desmethyl enzalutamide by itraconazole” value [11] was 1.3 fold, the “effect of a high-fat meal on AUC” value [2] was “did not alter” and the “effect on plasma exposure to midazolam (CYP3A4 substrate)” value ([12]; at steady state) was “reduced”. The CYP3A4 inducer strength ([12]; in humans) was “strong”, the “HR for death vs placebo” value ([13]; 95% CI 0.60 to 0.84, P<0.0001, ref 1 (S1 Protocol)) was 0.706 and the “Abnormal liver function testing, Grade 3-4 (%)” value [13, 16] was 0.2%. The “Arthralgias / musculoskeletal pain, Grade 3-4 (%)” value [13, 16] was 1.4%, the “Back pain, Grade 3-4 (%)” value [13, 16] was 2.5% and the “Constipation, Grade 3-4 (%)” value [13, 16] was 0.5%. For the same molecule, the “Fatigue, Grade 3-4 (%)” value [13, 16] was 1.8%, the “Hypertension, Grade 3-4 (%)” value [13, 16] was 6.8% and the “Seizure, Grade 3-4 (%)” value [13, 16] was 0%. The “median OS” value ([13]; enzalutamide 160 mg daily (N=871), ref 1 (S1 Protocol)) was 32.4 months and the “effect of gemfibrozil on composite AUC of enzalutamide plus N-desmethyl enzalutamide” value [14] was “increased”.
